Assay [1] deals with Melanocortin receptor 4 (Homo sapiens, UniProt P32245). The assay is described as follows: inhibitors of MC4R cAMP signaling – cell-based, TR-FRET, biased antagonists, dose response (AID 602298).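 Note: antagonist potency against agonist-stimulated cAMP production.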 The assay is classed as functional. On the technique in general: In TR-FRET formats the signal depends on donor and acceptor labels being close together.
Assay [2] relates to H9c2. The assay can be described thus: cells. Conditions: Rattus norvegicus, H9c2, Myocardium. It counts as functional, cell-based.
Assay [3] is described as follows: cAMP pathway inhibition in counterscreen cell line – TR-FRET cAMP detection, counter-screen for MC4R biased antagonist project, dose response (AID 602305).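 Note: U2OS cells stimulated with forskolin near its EC80 as the cAMP inducer; potency is for inhibition of forskolin-stimulated cAMP signaling.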 It counts as functional, cell-based. Background: The purpose of a counterscreen is to sort out artefacts and off-target activity.
In assay [4] the target is Tyrosine-protein kinase Fyn (Homo sapiens, UniProt P06241). It counts as functional.
Assay [5] concerns the target Mitogen-activated protein kinase kinase kinase kinase 4 (Homo sapiens, UniProt O95819). The assay is classed as functional.
Assay [6] has as its target Tyrosine-protein kinase BTK (Homo sapiens, UniProt Q06187). It counts as functional.
The target in assay [7] is Tyrosine-protein kinase ABL1 (Homo sapiens, UniProt P00519). The assay is classed as functional.
The target of assay [8] is Serine/threonine-protein kinase N2 (Homo sapiens, UniProt Q16513). The assay is classed as functional.
Assay [9] addresses Serine/threonine-protein kinase TAO1 (Homo sapiens, UniProt Q7L7X3). It counts as functional.
Assay [10] has as its target Misshapen-like kinase 1 (Homo sapiens, UniProt Q8N4C8). The assay is classed as functional.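 Note: kinome panel screen with MINK as the panel member.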
The target in assay [11] is Vascular endothelial growth factor receptor 2 (Homo sapiens, UniProt P35968). It counts as functional.
The target of assay [12] is Tyrosine-protein kinase Lck (Homo sapiens, UniProt P06239). It counts as functional.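 Note: lck was assayed as one member of a kinase panel.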
Assay [13] addresses Focal adhesion kinase 1 (Homo sapiens, UniProt Q05397). It counts as functional.
For assay [14], the target named is cAMP-dependent protein kinase catalytic subunit alpha (Homo sapiens, UniProt P17612). The assay is classed as functional.
Assay [15] deals with Glycogen synthase kinase-3 beta (Homo sapiens, UniProt P49841). The assay is classed as functional.
The target of assay [16] is Dual specificity protein kinase CLK4 (Homo sapiens, UniProt Q9HAZ1). It counts as functional.
In assay [17] the target is Serine/threonine-protein kinase pim-1 (Homo sapiens, UniProt P11309). The assay is classed as functional.
Assay [18] has as its target Cell division cycle 7-related protein kinase (Homo sapiens, UniProt O00311). It counts as functional.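 Note: value obtained from a kinome-wide kinase panel.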
Assay [19] has as its target Homeodomain-interacting protein kinase 2 (Homo sapiens, UniProt Q9H2X6). The assay is classed as functional.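 Note: measured within a kinome-wide kinase profiling panel, HIPK2 being one panel member.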
The target in assay [20] is MAP kinase-interacting serine/threonine-protein kinase 2 (Homo sapiens, UniProt Q9HBH9). It counts as functional.
Assay [21] addresses Interleukin-1 receptor-associated kinase 4 (Homo sapiens, UniProt Q9NWZ3). The assay is classed as functional.
In assay [22] the target is Protein disulfide-isomerase (Homo sapiens, UniProt P07237). The assay is described as follows: inhibition of PDI-driven insulin aggregation – biochemical, turbidity, absorbance, cherry-picked samples, dose response (AID 602350). It counts as functional.
The target of assay [23] is Platelet-derived growth factor receptor beta (Homo sapiens, UniProt P09619). The assay is classed as functional.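 Note: value comes from a kinome panel, with PDGFRB tested as one panel member.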
Assay [24] addresses 5'-AMP-activated protein kinase catalytic subunit alpha-1 (Homo sapiens, UniProt Q13131). The assay is classed as functional.
Assay [25] concerns the target Vascular endothelial growth factor receptor 1 (Homo sapiens, UniProt P17948). The assay is classed as functional.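 Note: measured within a kinome-wide profiling panel, FLT1 as the panel member.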
Assay [26] addresses Serine/threonine-protein kinase D3 (Homo sapiens, UniProt O94806). It counts as functional.
The target in assay [27] is Maternal embryonic leucine zipper kinase (Homo sapiens, UniProt Q14680). The assay is classed as functional.
The target of assay [28] is Glycogen synthase kinase-3 alpha (Homo sapiens, UniProt P49840). The assay is classed as functional.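 Note: GSK3A result taken from a broad kinome-wide kinase panel.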
The target of assay [29] is ALK tyrosine kinase receptor (Homo sapiens, UniProt Q9UM73). It counts as functional.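 Note: ALK tested as one member of a kinase panel screen.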
Assay [30] concerns the target Aurora kinase B (Homo sapiens, UniProt Q96GD4). The assay is classed as functional.
The target in assay [31] is Death-associated protein kinase 3 (Homo sapiens, UniProt O43293). It counts as functional.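 Note: measured as one member of a kinome-wide profiling panel.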
Assay [32] concerns the target Mitogen-activated protein kinase kinase kinase kinase 2 (Homo sapiens, UniProt Q12851). It counts as functional.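 Note: measured as one member of a kinome-wide kinase panel, with MAP4K2 as the panel entry.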
In assay [33] the target is Serine/threonine-protein kinase 3 (Homo sapiens, UniProt Q13188). It counts as functional.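 Note: measured as one member of a kinome-wide kinase panel.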
Assay [34] deals with LIM domain kinase 1 (Homo sapiens, UniProt P53667). The assay is described as follows: Navigating the Kinome. Panel member name: LIMK1. It counts as functional.
Assay [35] deals with Platelet-derived growth factor receptor alpha (Homo sapiens, UniProt P16234). The assay is described as follows: Navigating the Kinome. Panel member name: PDGFRA. The assay is classed as functional.
Assay [36] deals with Tyrosine-protein kinase HCK (Homo sapiens, UniProt P08631). The assay is described as follows: Navigating the Kinome. Panel member name: HCK. It counts as functional.
Assay [37] has as its target Rho-associated protein kinase 1 (Homo sapiens, UniProt Q13464). The assay is classed as functional.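 Note: measured within a broad kinome-wide panel profiling many kinases.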
Assay [38] concerns the target Cyclin-dependent kinase 9 (Homo sapiens, UniProt P50750). It counts as functional.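 Note: value from the CDK9 entry of a kinome-spanning kinase panel.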
The target in assay [39] is Proto-oncogene tyrosine-protein kinase ROS (Homo sapiens, UniProt P08922). The assay is classed as functional.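 Note: ROS1 tested as one member of a kinome-wide kinase panel.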
In assay [40] the target is Macrophage-stimulating protein receptor (Homo sapiens, UniProt Q04912). The assay can be described thus: Navigating the Kinome. Panel member name: MST1R. The assay is classed as functional.
Assay [41] has as its target Calcium/calmodulin-dependent protein kinase kinase 2 (Homo sapiens, UniProt Q96RR4). The assay can be described thus: Navigating the Kinome. Panel member name: CAMKK2. The assay is classed as functional.
The target in assay [42] is Cyclin-dependent kinase 5 (Homo sapiens, UniProt Q00535). The assay is classed as functional.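 Note: CDK5 measured as one member of a kinase profiling panel.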
The target of assay [43] is T1, cAMP-dependent protein kinase catalytic subunit PRKX (Homo sapiens, UniProt P51817).
T1 sequence (P51817 whole entry): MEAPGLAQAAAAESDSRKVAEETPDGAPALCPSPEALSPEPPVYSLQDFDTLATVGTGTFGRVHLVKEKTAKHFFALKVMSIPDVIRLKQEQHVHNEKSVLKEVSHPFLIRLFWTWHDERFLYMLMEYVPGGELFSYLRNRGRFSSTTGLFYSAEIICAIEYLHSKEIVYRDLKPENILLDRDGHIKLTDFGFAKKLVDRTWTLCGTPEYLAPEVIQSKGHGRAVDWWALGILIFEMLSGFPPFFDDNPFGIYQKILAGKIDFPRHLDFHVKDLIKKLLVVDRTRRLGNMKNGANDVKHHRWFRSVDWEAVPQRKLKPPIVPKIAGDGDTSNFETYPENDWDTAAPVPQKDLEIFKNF
It counts as functional.

The target of assay [44] is Cyclin-dependent kinase 7 (Homo sapiens, UniProt P50613). The assay is classed as functional.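 Note: value comes from a kinome-wide kinase profiling panel in which CDK7 is one member.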
Assay [45] concerns the target Leukocyte tyrosine kinase receptor (Homo sapiens, UniProt P29376). The assay is described as follows: Navigating the Kinome. Panel member name: LTK. It counts as functional.

The source made the active and inactive calls. A value given as a limit tells only on which side of the number the result lay.

Chain of Vascular endothelial growth factor receptor 2 (P35968 whole entry): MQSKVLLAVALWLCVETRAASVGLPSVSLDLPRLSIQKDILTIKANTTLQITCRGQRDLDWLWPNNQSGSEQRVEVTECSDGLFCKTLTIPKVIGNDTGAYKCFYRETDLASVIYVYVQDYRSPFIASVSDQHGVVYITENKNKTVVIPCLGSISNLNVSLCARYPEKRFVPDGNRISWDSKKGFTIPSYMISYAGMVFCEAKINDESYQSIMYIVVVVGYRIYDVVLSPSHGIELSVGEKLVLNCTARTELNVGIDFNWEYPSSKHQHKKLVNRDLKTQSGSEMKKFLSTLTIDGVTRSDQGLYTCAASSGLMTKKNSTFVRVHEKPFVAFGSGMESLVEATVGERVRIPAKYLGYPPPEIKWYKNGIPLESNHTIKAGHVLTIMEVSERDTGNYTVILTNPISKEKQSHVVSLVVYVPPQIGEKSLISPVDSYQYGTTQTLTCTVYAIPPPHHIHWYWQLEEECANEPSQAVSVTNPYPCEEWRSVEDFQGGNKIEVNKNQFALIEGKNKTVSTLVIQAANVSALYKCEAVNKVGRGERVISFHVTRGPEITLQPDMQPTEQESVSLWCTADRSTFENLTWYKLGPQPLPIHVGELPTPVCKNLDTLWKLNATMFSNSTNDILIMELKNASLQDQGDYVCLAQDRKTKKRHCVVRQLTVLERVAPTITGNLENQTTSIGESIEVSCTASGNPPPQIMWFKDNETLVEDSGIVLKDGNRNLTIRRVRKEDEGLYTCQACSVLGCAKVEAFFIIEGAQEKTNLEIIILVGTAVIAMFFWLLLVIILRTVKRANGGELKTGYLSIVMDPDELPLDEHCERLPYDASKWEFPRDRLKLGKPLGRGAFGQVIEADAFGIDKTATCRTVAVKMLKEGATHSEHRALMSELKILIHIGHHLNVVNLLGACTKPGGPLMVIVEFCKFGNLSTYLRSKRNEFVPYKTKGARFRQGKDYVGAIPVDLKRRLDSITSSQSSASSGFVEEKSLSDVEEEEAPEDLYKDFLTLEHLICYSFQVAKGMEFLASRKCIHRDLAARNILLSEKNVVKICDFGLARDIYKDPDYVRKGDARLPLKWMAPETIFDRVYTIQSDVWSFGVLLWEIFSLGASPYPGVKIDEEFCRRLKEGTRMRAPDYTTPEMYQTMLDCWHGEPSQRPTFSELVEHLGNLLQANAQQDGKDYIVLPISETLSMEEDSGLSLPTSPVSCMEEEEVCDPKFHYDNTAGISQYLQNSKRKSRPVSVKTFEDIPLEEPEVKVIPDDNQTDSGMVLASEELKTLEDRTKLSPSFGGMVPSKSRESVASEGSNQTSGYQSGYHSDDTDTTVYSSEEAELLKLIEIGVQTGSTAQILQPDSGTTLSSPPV
Chain of Mitogen-activated protein kinase kinase kinase kinase 2 (Q12851 whole entry): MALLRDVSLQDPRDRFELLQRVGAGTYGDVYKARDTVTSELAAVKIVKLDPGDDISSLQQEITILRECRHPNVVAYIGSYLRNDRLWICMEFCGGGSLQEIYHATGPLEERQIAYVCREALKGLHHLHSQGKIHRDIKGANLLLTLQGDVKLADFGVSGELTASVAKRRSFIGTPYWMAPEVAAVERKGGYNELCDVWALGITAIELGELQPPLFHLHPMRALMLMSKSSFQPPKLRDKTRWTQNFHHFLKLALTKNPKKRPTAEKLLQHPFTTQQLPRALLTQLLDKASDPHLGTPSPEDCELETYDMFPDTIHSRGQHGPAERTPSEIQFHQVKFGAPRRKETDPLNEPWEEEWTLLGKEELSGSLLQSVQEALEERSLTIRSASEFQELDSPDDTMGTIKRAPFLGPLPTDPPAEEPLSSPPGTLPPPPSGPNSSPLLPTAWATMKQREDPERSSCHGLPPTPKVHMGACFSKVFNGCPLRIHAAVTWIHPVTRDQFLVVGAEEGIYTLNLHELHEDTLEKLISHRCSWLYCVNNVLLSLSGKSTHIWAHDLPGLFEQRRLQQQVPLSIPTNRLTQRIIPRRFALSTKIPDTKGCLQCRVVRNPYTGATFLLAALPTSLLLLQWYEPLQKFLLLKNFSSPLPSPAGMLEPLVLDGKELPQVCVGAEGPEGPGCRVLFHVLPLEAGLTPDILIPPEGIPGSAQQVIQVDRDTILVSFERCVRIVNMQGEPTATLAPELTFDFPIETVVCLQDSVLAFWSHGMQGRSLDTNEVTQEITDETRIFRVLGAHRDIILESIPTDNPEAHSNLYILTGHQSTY
Chain of Aurora kinase B (Q96GD4 whole entry): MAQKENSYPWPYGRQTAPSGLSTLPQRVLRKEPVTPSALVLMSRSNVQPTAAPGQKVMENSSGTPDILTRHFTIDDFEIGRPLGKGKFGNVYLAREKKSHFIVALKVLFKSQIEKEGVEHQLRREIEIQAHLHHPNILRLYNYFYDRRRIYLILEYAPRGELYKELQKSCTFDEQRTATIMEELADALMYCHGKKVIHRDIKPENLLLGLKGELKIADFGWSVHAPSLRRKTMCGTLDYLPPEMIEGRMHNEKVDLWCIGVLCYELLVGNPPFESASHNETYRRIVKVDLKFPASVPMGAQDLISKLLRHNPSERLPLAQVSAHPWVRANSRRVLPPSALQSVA
Chain of ALK tyrosine kinase receptor (Q9UM73 whole entry): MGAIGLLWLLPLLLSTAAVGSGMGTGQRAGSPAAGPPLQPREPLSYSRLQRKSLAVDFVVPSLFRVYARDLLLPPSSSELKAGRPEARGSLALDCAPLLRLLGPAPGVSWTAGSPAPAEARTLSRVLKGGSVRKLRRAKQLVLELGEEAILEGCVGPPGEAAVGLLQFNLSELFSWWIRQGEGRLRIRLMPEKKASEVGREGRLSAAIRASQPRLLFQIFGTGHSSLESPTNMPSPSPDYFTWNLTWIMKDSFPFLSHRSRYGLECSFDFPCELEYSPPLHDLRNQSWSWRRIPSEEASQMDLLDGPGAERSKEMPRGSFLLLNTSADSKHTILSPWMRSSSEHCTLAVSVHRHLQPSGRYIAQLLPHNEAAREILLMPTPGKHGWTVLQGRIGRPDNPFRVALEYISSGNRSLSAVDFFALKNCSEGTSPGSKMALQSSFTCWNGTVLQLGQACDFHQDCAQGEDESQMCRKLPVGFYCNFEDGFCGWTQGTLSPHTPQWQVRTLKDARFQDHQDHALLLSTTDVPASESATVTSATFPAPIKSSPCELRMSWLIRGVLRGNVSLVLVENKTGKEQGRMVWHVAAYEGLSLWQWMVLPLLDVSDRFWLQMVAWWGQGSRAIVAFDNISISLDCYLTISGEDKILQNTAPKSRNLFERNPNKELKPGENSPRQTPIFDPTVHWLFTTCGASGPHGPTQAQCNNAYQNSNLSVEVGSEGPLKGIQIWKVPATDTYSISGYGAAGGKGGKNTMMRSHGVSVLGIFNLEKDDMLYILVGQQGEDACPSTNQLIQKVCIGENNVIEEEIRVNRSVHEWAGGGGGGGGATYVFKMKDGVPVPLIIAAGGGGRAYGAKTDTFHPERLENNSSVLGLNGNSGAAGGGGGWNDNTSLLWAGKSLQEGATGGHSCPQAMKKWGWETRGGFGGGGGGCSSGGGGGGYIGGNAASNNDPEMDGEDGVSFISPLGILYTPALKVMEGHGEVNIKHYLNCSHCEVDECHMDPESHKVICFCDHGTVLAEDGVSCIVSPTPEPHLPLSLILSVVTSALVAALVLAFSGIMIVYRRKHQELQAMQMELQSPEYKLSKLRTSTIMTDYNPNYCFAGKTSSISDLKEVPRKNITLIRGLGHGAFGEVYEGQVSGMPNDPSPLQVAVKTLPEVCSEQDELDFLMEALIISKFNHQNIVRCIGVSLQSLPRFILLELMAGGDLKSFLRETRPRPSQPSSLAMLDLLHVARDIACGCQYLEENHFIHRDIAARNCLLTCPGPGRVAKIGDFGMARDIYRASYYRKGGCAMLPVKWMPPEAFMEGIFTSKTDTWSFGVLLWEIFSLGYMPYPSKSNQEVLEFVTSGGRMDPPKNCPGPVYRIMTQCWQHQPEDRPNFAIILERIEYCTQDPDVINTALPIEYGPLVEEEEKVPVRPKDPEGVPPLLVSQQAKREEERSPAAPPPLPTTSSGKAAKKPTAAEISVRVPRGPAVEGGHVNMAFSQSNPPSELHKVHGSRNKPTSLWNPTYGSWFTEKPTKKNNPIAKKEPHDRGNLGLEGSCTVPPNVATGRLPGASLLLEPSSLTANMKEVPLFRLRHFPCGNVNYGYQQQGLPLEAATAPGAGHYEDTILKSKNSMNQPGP
Chain of Tyrosine-protein kinase Lck (P06239 whole entry): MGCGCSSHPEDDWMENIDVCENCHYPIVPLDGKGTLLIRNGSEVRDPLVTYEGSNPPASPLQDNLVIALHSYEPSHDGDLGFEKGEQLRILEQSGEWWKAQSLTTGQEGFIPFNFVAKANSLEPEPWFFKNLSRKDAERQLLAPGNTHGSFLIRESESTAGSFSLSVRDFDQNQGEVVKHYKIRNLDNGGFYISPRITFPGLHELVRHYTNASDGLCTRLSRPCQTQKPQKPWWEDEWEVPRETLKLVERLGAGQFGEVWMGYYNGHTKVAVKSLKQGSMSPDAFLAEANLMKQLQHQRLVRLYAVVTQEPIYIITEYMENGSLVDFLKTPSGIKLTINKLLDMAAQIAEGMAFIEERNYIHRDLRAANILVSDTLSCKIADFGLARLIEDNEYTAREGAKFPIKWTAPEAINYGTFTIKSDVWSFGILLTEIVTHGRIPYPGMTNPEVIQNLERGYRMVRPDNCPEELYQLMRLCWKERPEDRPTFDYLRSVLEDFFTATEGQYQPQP
Chain of Cyclin-dependent kinase 5 (Q00535 whole entry): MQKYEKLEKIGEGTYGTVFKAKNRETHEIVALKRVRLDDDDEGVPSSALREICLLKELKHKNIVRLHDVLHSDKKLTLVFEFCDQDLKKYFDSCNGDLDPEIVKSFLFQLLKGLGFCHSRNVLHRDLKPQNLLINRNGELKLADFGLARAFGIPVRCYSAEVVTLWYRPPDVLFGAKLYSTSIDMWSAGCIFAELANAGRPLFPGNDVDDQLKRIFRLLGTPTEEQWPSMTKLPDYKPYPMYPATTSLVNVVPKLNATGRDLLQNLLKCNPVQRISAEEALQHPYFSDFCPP

On to `CS(=O)(=O)Nc1cccc(NC(=O)c2cccc3c(-c4cccc(C(N)=O)c4)coc23)c1`, for which the IC50 – broadly, the point on the concentration scale where inhibition reaches its midpoint – in assay [1] was > 64600 nM (inactive); in [2] it was > 79000 nM (inactive); in assay [3], > 64600 nM (inactive).

In the case of `CN(C)c1c(NC(=O)c2c(F)cccc2F)cccc1-c1nc2sccn2c1-c1ccnc(Nc2cccc(N3CCOCC3)c2)n1`, the Ki (as a rule, a dissociation constant, usually derived from enzyme kinetics or from competition with a known ligand) in assay [4] is > 6310 nM (inactive); in assay [5], 1260 nM (active); in assay [6] it was > 6310 nM (inactive); in assay [7] it was 501 nM (active); in assay [8] it was > 5010 nM (inactive); in assay [9], > 6310 nM (inactive). Further, the Ki was > 5010 nM (inactive) in assay [10], 2000 nM (active) in [11], 501 nM (active) in [12] and > 6310 nM (inactive) in [13].

In the case of `Cc1cccc(CNc2cc(-c3c[nH]c4ncccc34)ncn2)c1`, the inhibitory constant (Ki) in [14] is 158 nM (active); in assay [15] it was 7.94 nM (active); in [16], 6.31 nM (active); in assay [17], 126 nM (active); in [18], 2.51 nM (active); in [19], 158 nM (active). The Ki was 158 nM (active) in assay [20] and 501 nM (active) in assay [21].

For `CCN1C[C@]2(COC(=O)c3ccccc3N)CC[C@H](OC)C34[C@@H]5C[C@H]6[C@H](OC)[C@@H]5[C@](O)(C[C@@H]6OC)[C@@](O)([C@H]13)[C@@H](OC)[C@@H]42`, in assay [22], the AC50 (in general, the concentration giving half of the maximal activity seen) is 19500 nM (active).

In the case of `CCN1CCN(Cc2ccc(NC(=O)Nc3ccc(Oc4cc(NC)ncn4)cc3)cc2C(F)(F)F)CC1` [AST-487], the Ki was 7.94 nM (active) in assay [23]; > 3160 nM (inactive) in assay [24]; 31.6 nM (active) in assay [25]; > 3980 nM (inactive) in assay [26]; 126 nM (active) in [27]; > 3980 nM (inactive) in assay [28]. Also, the Ki was > 6310 nM (inactive) in assay [29]; > 3980 nM (inactive) in assay [30]; 3980 nM (active) in assay [31]; 79.4 nM (active) in [32]; > 2510 nM (inactive) in [33]; > 3160 nM (inactive) in assay [34]. Moreover, the Ki was 79.4 nM (active) in [35]; 100 nM (active) in [36]; > 3980 nM (inactive) in [37]; > 1580 nM (inactive) in assay [38]; 2000 nM (active) in [39]; > 3980 nM (inactive) in assay [40]. In addition, the Ki is 794 nM (active) in [41]; > 3160 nM (inactive) in [42]; > 3160 nM (inactive) in assay [43]; 2.51 nM (active) in assay [11]; > 5010 nM (inactive) in [44]; 631 nM (active) in [45].

Values taken from ChEMBL document CHEMBL1201862, “PubChem BioAssay data set” (2004).
